Laboratory results published in US5753789A, “Oligonucleotides containing L-nucleosides” (priority 1996, dated 1998).
Where two headings read alike, the source gives them in different places.

Tests used:
[1] = Cytotoxicity in H1 cells (cell count); type: cell-based; details: human
Protocol: (§1) Inhibitory effect of compounds on EBV: The CD50 was performed by
exposing H1 cells to different concentrations of the compounds in normal
growth medium at 37° C. for 72 hours; the cells were then counted
and compared with controls. H1 cells were treated for 5 days and the […]

EBV = test: Inhibitory effect of compounds on EBV (virus production in H1 cells, bioassay of EBV DP activity in Raji cells); type: cell-based, Epstein-Barr virus; details: for Therapeutic Index (CD50/ID90): CD50 in H1 cells / ID90 for EBV; for IC90: human gammaherpesvirus 4, Raji, 120 h, EBV, H1 cells treated for 5 days, bioassay, read-out: ID90 (the source's name)
Protocol: (§2) H1 cells were maintained in […] growth for two days prior to the initiation of treatment. The cells were centrifuged at 600 g for 10 min. at room temperature to separate them from the medium containing pre-existing virus particles. The H1 cells were seeded in 24 well plates at a density of 1×10^5 cells per well in 2 ml of fresh medium with or without drug and incubated at 37° C. for 5 days. The medium containing virion was saved and used for evaluating the inhibitory effect of drugs on virus production and infectivity by use of a bioassay. The virion were pelleted from the cell free medium by centrifugation at 45,000 rpm for 90 min. in a SW-50 Ti rotor (Beckman). The virion were resuspended in 1 ml growth medium and then used to infect 1×10^6 Raji cells for 48 hours. Since the level of EBV DP activity in Raji cells post superinfection is proportional to the number of virions added, the EBV specific DP activity induced was able to be measured. The inhibitory drug effect was calculated by comparing the EBV DP activity to multiple dilution controls.
as §1
and compared with controls. H1 cells were treated for 5 days and the
ID90 was determined by bioassay.

HBV = test: Biological activity against HBV in 2.2.15 cells (HBV DNA, Southern analysis); type: cell-based; details: Hepatitis B virus, 144 h, read-out: Anti-HBV Activity ID50
Protocol: Human hepatoma cells with HBV (2.2.15 cells) were used in the assay. These cells were grown to confluence in minimal essential medium with 10% fetal bovine serum. The media was changed at 3-day intervals. At confluence the treatment with the drugs was initiated and then continued for three days. Another addition of the same concentration of the drug was given at this point after removal of the media from the cultures and cultures maintained for an additional period of 3 days. The medium after the 6-day treatment was harvested and the viral particles precipitated by the polyethylene glycol method. The particles were subsequently digested and then processed for Southern analysis. The blots were hybridized to an HBV-specific probe and viral DNA amounts assessed in comparison to DNA levels from cultures not treated with the drugs. The genomic DNA was digested with Hind III and subjected to Southern analysis. Levels of the episomal DNA were determined in relation to the integrated HBV DNA. The drug concentrations that cause 50% inhibition of the DNA (ID50) as compared to the controls were calculated.

[2] = Clearance of L-(-)-FMAU from liver after oral administration; type: in vivo; details: mice, 10 or 50 mg/kg
Protocol: (§3) The clearance of L-(-)-FMAU from the plasma and liver of mice after oral administration was evaluated. Mice were […] with L-(-)-FMAU which was tritium labeled (radiospecificity of […]).
(§4) FIG. 11 is a graph of the plasma concentration of L-(-)-FMAU in mice after oral administration over time, and FIG. 12 is a graph of the concentration of L-(-)-FMAU in mouse liver after oral administration over time (cross, 10 mg/kg administered bid (bi-daily) for 30 days prior to pharmacokinetic study and then study carried out on day thirty-one on administration of same concentration; dark circle, 50 mg/kg administered bid for 30 days prior to study and then study carried out on day thirty-one on administration of same concentration; open circle, 50 mg/kg administered for the first time on the first day of the study).
(§5) At the times indicated (see FIGS. […]) the mice were bled from their retro-orbital sinus using heparinized capillaries. The plasma was extracted with trichloroacetic acid and neutralized with freon/trioctylamine. Supernatants were directly counted and the concentration calculated.

[3] = Clearance of L-(-)-FMAU from plasma after oral administration; type: in vivo; details: mice, 10 or 50 mg/kg
Protocol: as §3, §4, §5

[4] = system: mitochondrial DNA content in H1 cells; test: Mitochondrial DNA content of H1 cells (slot blot assay); type: cell-based, human; details: 1 mM, 6 days
Protocol: as §2
Slot Blot Assay--The amount of mitochondrial DNA was measured by the slot blot method (2). […] The amount of mitochondrial DNA in the treated and non-treated H1 cells was quantified by densitometer (LKB Ultroscan XL).

[5] = Clinical chemistry of mouse plasma after L-(-)-FMAU treatment; type: in vivo; details: 10 or 50 mg/kg bid, thirty days
Protocol: FIGS. 14-20 provide the clinical chemistry of mouse plasma after administration of L-(-)-FMAU at 10 mg/kg (three mice) or 50 mg/kg (three mice) bid for thirty days.

[6] = Toxicity in BDF1 female mice (body weight over thirty days); type: in vivo; details: 10 mg/kg and 50 mg/kg bid
Protocol: FIG. 13a illustrates the change in body weight over thirty days of control BDF1 female mice. FIGS. 13b and 13c illustrate the change in body weight over thirty days of BDFI female mice dosed with 10 mg/kg (13b) and 50 mg/kg (13c) bid of L-(-)-FMAU. The body weight presented represents the mean and standard deviation of that of five to seven mice.

[7] = 37° C., 72 hours, Table 2, read-out: CD50
[8] = Table I, read-out: (H1 cells) CD50

Structure (SMILES) | CC50 at 72 h [1, 7] [µM] | Therapeutic Index (CD50/ID90) (EBV) | IC90 (EBV) [µM] | CC50 at 72 h [1, 8] [µM] | also measured
Nc1nc2c(ncn2COCCO)c(=O)[nH]1 [ACV] | 1000 ± 75 | 20 | – | – | –
Nc1nc(=O)n([C@@H]2O[C@H](CO)[C@@H](O)[C@@H]2F)cc1I [D-FIAC] | 125 ± 15 | 25 | 5 ± 0.5 | – | –
O=c1[nH]c(=O)n([C@H]2O[C@@H](CO)[C@H](O)[C@H]2F)cc1I [L-FIAU, 2'-fluoro-5-iodo-β-L-arabinofuranosyluridine] | 240 ± 20 | 12 | 20 ± 4 | – | –
Cc1cn([C@@H]2O[C@H](CO)[C@@H](O)[C@@H]2F)c(=O)[nH]c1=O [D-FMAU] | – | 50 | – | 50 | IC50 (HBV): 2 µM
CCc1cn([C@H]2O[C@@H](CO)[C@H](O)[C@H]2F)c(=O)[nH]c1=O [L-FEAU, 2'-fluoro-5-ethyl-β-L-arabinofuranosyluridine] | – | 15 | 60 ± 11 | 900 | –
O=C(O)P(=O)(O)O [PFA] | 1200 ± 100 | 16 | – | – | –
O=c1[nH]c(=O)n([C@@H]2O[C@H](CO)[C@@H](O)[C@@H]2F)cc1I [D-FIAU] | 20 ± 4 | 40 | 0.5 ± 0.05 | – | –
Nc1nc2c(ncn2COC(CO)CO)c(=O)[nH]1 [DHPG] | 75 ± 6 | 15 | – | – | –
Nc1nc2c(ncn2CCC(CO)CO)c(=O)[nH]1 [PCV] | 500 ± 55 | 25 | – | – | –
Nc1nc(=O)n([C@H]2O[C@@H](CO)[C@H](O)[C@H]2F)cc1I [L-FIAC, 2'-fluoro-5-iodo-β-L-arabinofuranosylcytosine] | 400 ± 35 | > 40 | < 10 | – | –
Cc1cn([C@H]2O[C@@H](CO)[C@H](O)[C@H]2F)c(=O)[nH]c1=O [L-FMAU, 2'-fluoro-5-methyl-β-L-arabinofuranosyluridine] | – | 200 | – | 1000 | IC50 (HBV): 0.1 µM; Clearance from liver [2]: substantially cleared from both plasma and liver after four hours; Time of peak concentration in liver [2]: approximately one; Clearance from plasma [3]: substantially cleared from both plasma and liver after four hours; Time of peak concentration in plasma [3]: approximately one; Inhibition of mitochondrial DNA content [4]: No inhibition of mitochondrial DNA content in H1 cells was observed; ALT (SGPT) in mouse plasma [5]: With the exception of mouse 50-2 (for both SGOT and SGPT) and mouse 10-2 (for SGOT only), the enzyme levels of the treated mice are not different from those of the control mice; AST (SGOT) in mouse plasma [5]: With the exception of mouse 50-2 (for both SGOT and SGPT) and mouse 10-2 (for SGOT only), the enzyme levels of the treated mice are not different from those of the control mice; Creatinine in mouse plasma [5]: With the exception of mouse 50-2, the creatinine levels of the treated mice are not different from those of the control mice; Lactic acid in mouse plasma [5]: not significantly differnt from those of the control mice; Lactic dehydrogenase in mouse plasma [5]: not significantly differnt from those of the control mice; Alkaline phosphatase in mouse plasma ([5]; normal human level 30-114 U/L): somewhat higher than the normal human level; Total bilirubin in mouse plasma ([5]; normal human range less than 1.2 mg/dL): fall within the normal human range; Change in body weight [6]: did not appear to significantly affect the weight of the mice over thirty days; Tolerability [6]: well tolerated
CCc1cn([C@@H]2O[C@H](CO)[C@@H](O)[C@@H]2F)c(=O)[nH]c1=O [D-FEAU] | – | 2000 | – | 2000 | –
